# Assay results from article PMC4305006 (Chemistry & biology, 2014).
# Assays:
# Assay type in all cases: cell-based, Mycobacterium tuberculosis
# [1] = tested on: Mtb H37Rv with 1 μM supplemental biotin
# [2] = tested on: Mtb H37Rv without supplemental biotin; conditions: 90% inhibition, 14 days
# [3] = tested on: Mtb BioA under-expression strain (BioA-UE); conditions: 90% inhibition, biotin-free Sauton's medium, 14 days
smiles,measurement,setting,value
"C=C(CCC(=O)O)c1nc2ccccc2s1 [Compound 13, 4-(benzothiazol-2-yl)pentenoic acid]",shift of MIC upon addition of biotin,[1],approximately 3 fold
same,MIC90 WT+biotin,"[1]; 90% inhibition, Mtb H37Rv with 1 μM supplemental biotin, 14 days",8.7 µM
same,MIC90 WT -biotin,[2],2.5 µM
same,MIC90 BioA-UE,[3],0.7 µM
